Laboratory results as given in publication PMC5329011 (Frontiers in Neuroscience, 2017).
Like-named read-outs stand apart in the source and are kept apart here. One block for each compound: values may come before it. Ends that are not written are not given here.

How the values were obtained:
[1] = biological target: T1, apelin receptor (Homo sapiens, UniProt P35414); test: Inhibition of forskolin-stimulated cAMP accumulation (DiscoverX); assay type: cell-based; settings: 15 μmol/L forskolin, cells expressing human apelin receptor, mean ± SEM, n = replicates/experiments, read-out: pD2, inhibition of forskolin-stimulated cAMP (converted)
T1 sequence (P35414 1-380): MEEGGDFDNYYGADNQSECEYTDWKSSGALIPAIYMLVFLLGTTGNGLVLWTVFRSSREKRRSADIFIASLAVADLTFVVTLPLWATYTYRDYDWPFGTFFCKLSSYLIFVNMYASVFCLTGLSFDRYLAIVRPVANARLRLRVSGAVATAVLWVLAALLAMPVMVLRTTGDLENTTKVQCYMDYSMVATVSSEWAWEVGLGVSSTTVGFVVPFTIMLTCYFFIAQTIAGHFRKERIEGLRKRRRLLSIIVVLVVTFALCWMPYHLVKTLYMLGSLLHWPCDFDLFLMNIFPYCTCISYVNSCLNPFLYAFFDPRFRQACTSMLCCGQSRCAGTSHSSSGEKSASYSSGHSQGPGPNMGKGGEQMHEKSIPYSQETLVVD
Protocol: (§1) Inhibition of cAMP accumulation, β-arrestin recruitment and receptor internalization by apelin isoforms, modified and truncated apelin peptides were studied using cells expressing the human apelin receptor (DiscoverX, CA, USA) as per the manufacturer's instructions. In all assays the resulting chemiluminescent signal was measured as relative light units (RLU) using a LumiLITE™ Microplate Reader (DiscoveRx, Fremont, CA). […] Agonist responses were expressed as a % of the forskolin response. […] Data were analyzed using a 4-parameter logistic equation using GraphPad Prism 6 to determine values of potency, pD2 (−log10 EC50, where EC50 is the concentration producing half maximal response) and maximum response (EMAX). n-Values are given as number of replicates/number of experiments.

[2] = biological target: T1, apelin receptor; test: β-arrestin recruitment assay (DiscoverX); assay type: cell-based; settings: cells expressing human apelin receptor, mean ± SEM, n = replicates/experiments, read-out: pD2, β-arrestin recruitment (converted)
Protocol: as §1

[3] = biological target: T1, apelin receptor; test: Receptor internalization assay (DiscoverX); assay type: cell-based
Protocol: as §1

[4] = biological target: T1, apelin receptor; test: β-arrestin assay without and with pre-incubation with rhACE2; assay type: cell-based
Protocol: as §1

[5] = biological target: T2, vascular smooth muscle apelin receptor (Homo sapiens, UniProt P35414); test: Contraction of endothelium-denuded human saphenous vein; settings: n = 9; for Emax: % of terminal response to KCl (100 mmol/L)
T2 construct: from tissue; host or cells: endothelium-denuded human saphenous vein
T2 sequence (P35414 1-380): T1 sequence (P35414 1-380)
Protocol: (§2) Vascular smooth muscle apelin receptor-mediated contraction was exploited in a bioassay to compare the in vitro potency of apelin peptides. […] Agonist responses were expressed as a % of a terminal response to KCl (100 mmol/L). […] Data were expressed as % of the terminal response to CaCl2. Data from vascular and cardiac experiments were analyzed using a 4-prameter logistic curve (GraphPad Prism 6) to determine values of pD2 and EMAX.

[6] = human, in vivo
Protocol: Studies were performed in healthy volunteers (n = 12) in the University of Cambridge Vascular Research Unit, Addenbrooke's Hospital, Cambridge, UK. This study was carried out in accordance with the recommendations of the National Research Ethics Service Committee East of England-Cambridge Central with written informed consent from all subjects. All subjects gave written informed consent in accordance with the Declaration of Helsinki. The protocol was approved by the National Research Ethics Service Committee East of England-Cambridge Central (REC 11/EE/0305).
Exclusion criteria were ischemic heart disease, respiratory, renal or neurological disease, diabetes mellitus, hypertension, BMI > 30, BMI <18; smoker; pregnant; use of vasoactive medication or NSAIDS/aspirin within 48 h of study; current involvement in other research studies. An Omron HEM705CP oscillimetric sphygmomanometer was used to measure blood pressure and heart rate at baseline and then every 6 min in the contralateral arm. Periodically, a cuff around the upper arm was inflated for ~8 s to 40 mmHg then deflated for 4 s to interrupt venous return and during a 3 min measurement hand circulation was excluded by inflation of wrist cuffs to 200 mmHg. Changes in forearm volume were measured by mercury-in-silastic strain gauge with FBF subsequently expressed as ml/100 ml forearm volume per min. […]

[7] = biological target: T1, apelin receptor; test: Competition binding with [Glp65,Nle75,Tyr77][125I]apelin-13 in human left ventricle homogenate; design: from tissue; host or cells: human left ventricle homogenate
Protocol: Assays were performed in human heart as previously described (Brame et al., [2015]). […] Equilibrium was broken by centrifugation (20,000 g for 10 min, 4°C) and pellets washed with Tris-HCl buffer (50 mmol/L, pH 7.4, 4°C), re-centrifuged and pellets counted for detection of bound radioactivity. Competition binding data were analyzed using GraphPad Prism 6 (GraphPad Software, Inc. La Jolla, CA, USA) to obtain values of pKi (the negative log10 of the dissociation constant derived from the IC50 for the competing ligands, the radioligand concentration and radioligand affinity by the Cheng and Prusoff equation). Experiments were performed in triplicate.
Measurements are mean ± standard error of the mean (SEM). […] Cell assay pD2 values were compared by one-way ANOVA followed by Tukey's multiple comparison test.

[8] = biological target: T3, recombinant human ACE2 (Homo sapiens, UniProt Q9BYF1); test: Incubation with rhACE2, Maldi-TOF mass spectrometry; assay type: in vitro ADME; settings: 5 nmol peptide, 5 pmol rhACE2, MES buffer pH 6.5, 2 h, 37°C, Maldi-TOF read-out
T3 construct: purchased GSK, Ware, UK
Protocol: The reaction mixture was analyzed by Maldi-TOF mass spectrometry after samples were desalted using Millipore μC18ZipTip (MA, USA), washed with 5% acetic acid and eluted with CHCA matrix (in 50% aqueous acetonitrile containing 0.1% trifluoroacetic acid) to a stainless steel sample slide. Samples were air dried and analyzed using a Waters Maldi MicroMX time-of-flight mass spectrometer (MA, USA). Calibration was external using polyethylene glycol. The 10 Hz-laser power was just above threshold. The spectra were the sum of 1,000 shots collected from a spiral track of the sample area. Data were processed using Waters MassLynx software (MA, USA).

[9] = cited from earlier work
Excerpt: Apelins are modulators of vascular tone and cardiac contractility in vitro and in vivo (Japp et al., [2008], [2010]; Maguire et al., [2009]; Barnes et al., [2013]; Brame et al., [2015]).

[10] = test system: mouse paced right ventricle; test: Inotropic action in mouse paced right ventricle; settings: mouse paced RV, n = 6 (isoprenaline n = 4)
Protocol: as §2

[11] = test system: rhACE2; test: rhACE2 enzyme (5 pmol, GSK) in buffer (pH 6.5) containing MES (500 mmol/L), NaCl (300 mmol/L) and ZnCl2 (10 μmol/L); settings: human, 37°C, up to 2 h
[12] = rat in vivo; settings: cited from earlier work

T3 sequence (Q9BYF1 18-740 limits assumed): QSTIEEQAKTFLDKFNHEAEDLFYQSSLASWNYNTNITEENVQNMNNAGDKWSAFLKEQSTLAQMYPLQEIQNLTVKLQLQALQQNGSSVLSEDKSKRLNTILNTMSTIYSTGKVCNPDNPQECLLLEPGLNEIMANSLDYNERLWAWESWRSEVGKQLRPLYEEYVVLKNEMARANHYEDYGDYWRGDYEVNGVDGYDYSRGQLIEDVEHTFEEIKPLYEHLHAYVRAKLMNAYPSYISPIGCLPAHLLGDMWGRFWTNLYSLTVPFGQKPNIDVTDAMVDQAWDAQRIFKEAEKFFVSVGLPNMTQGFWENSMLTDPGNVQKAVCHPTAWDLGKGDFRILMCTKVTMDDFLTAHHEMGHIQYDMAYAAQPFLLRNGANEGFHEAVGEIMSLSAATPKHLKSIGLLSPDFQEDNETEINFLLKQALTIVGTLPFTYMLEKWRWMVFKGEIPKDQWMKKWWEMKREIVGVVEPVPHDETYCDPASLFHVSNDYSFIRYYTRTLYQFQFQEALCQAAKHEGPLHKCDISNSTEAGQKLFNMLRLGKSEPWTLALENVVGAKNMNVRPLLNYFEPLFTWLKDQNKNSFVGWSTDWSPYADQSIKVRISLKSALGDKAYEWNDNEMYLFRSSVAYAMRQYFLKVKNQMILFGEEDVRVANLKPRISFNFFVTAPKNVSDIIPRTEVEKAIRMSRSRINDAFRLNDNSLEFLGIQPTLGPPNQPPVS

Compound: CSCC[C@H](NC(=O)[C@@H]1CCCN1C(=O)CNC(=O)[C@H](CCCCN)NC(=O)[C@H](Cc1c[nH]cn1)NC(=O)[C@H](CO)NC(=O)[C@H](CC(C)C)NC(=O)[C@H](CCCNC(=N)N)NC(=O)[C@@H]1CCCN1C(=O)[C@H](CCCNC(=N)N)NC(=O)[C@@H]1CCC(=O)N1)C(=O)N1CCC[C@H]1C(=O)O [[Pyr^1]apelin-13(1–12)]
EC50 [1]: 0.501 nM
EC50 [2]: 14.5 nM
Emax [3]: 97 ± 2%
EC50 ([3]; mean ± SEM, SEM, read-out: pD2, receptor internalization (converted)): 6.46 nM
EMAX (% [Pyr^1]apelin-13) ([4]; without or with pre-incubation with rhACE2): 98 ± 5 % [Pyr^1]apelin-13
EC50 ([4]; without or with pre-incubation with rhACE2 (2 h, 37°C), mean ± SEM, SEM, read-out: Potency (pD2) (converted)): 53.7 nM
Emax [5]: 24 ± 6%
EC50 ([5]; endothelium-denuded human saphenous vein, mean ± SEM, SEM, read-out: pD2, contraction of saphenous vein (converted)): 0.234 nM
effect on heart rate or blood pressure [6]: No significant effects
Ki ([7]; 0.1 nmol/L radioligand, 90 min, 22°C, pH 7.4, Cheng-Prusoff, mean ± SEM, n = 3, SEM): 9.12 nM

Compound: CSCC[C@H](NC(=O)[C@@H]1CCCN1C(=O)CNC(=O)[C@H](CCCCN)NC(=O)[C@H](Cc1cnc[nH]1)NC(=O)[C@H](CO)NC(=O)[C@H](CC(C)C)NC(=O)[C@H](CCCNC(=N)N)NC(=O)[C@@H]1CCCN1C(=O)[C@H](CCCNC(=N)N)NC(=O)[C@@H]1CCC(=O)N1)C(=O)N1CCC[C@H]1C(=O)N[C@@H](Cc1ccccc1)C(=O)O [[Pyr^1]apelin-13]
result of incubation with rhACE2 [8]: de novo generation of [Pyr^1]apelin-13(1–12), with a weak signal representing the remaining parent peptide
half-life ([9]; humans, ref Japp et al., 2008): less than 8 min
half-life ([9]; rat, ref Brame et al., 2015): less than 3 min

Compound: pGlu-Arg-Pro-Arg-Leu-Ser-His-Lys-Gly-Pro-Met-Pro
not cleaved [11]: did not produce shorter apelin fragments (2 h)

Further lines, with some results ahead:

Emax [5]: 23 ± 4%
Compound: CSCC[C@H](NC(=O)[C@@H]1CCCN1C(=O)CNC(=O)[C@H](CCCCN)NC(=O)[C@H](Cc1c[nH]cn1)NC(=O)[C@H](CO)NC(=O)[C@H](CC(C)C)NC(=O)[C@H](CCCNC(=N)N)NC(=O)[C@@H]1CCCN1C(=O)[C@H](CCCNC(=N)N)NC(=O)[C@@H](N)CCC(N)=O)C(=O)N1CCC[C@H]1C(=O)N[C@@H](C)C(=O)O [apelin-13(F13A), reference compound]

EC50 ([10]; mean ± SEM, SEM, read-out: pD2, increase in force of contraction (converted)): 13.2 nM
Compound: CC(C)NCC(O)c1ccc(O)c(O)c1 (stereo not shown) [isoprenaline]
EMAX, increase in force of contraction [10]: 78 ± 17 % CaCl2

EC50 [1]: 2 nM
EC50 [2]: 5.5 nM
% of specific binding competed for ([7]; single concentration 1 μM peptide): 100%
Compound: RPRLSHKGPM [apelin-13(R10M)]

cleaved bond [11]: Pro12-Phe13, 2 h
Compound: pGlu-Arg-Pro-Arg-Leu-Ser-His-Lys-Gly-Pro-Met-Pro-Phe
cleaved bond [12]: Pro12-Phe13, minor
